For orientation: EC50 means the concentration that produces a half-maximal response.

Common to all, as to assay type: functional, cell-based
One experiment deals with A549. Briefly: Cytotoxicity against human A549 cells after 72 hrs by MTT assay. The settings on record: A549, 72 h. (Tetrazolium assays rely on reduction of a dye to a coloured formazan, in cell work by metabolically active cells.)
Another experiment relates to HepG2. Briefly: Cytotoxicity against human HepG2 cells after 72 hrs by MTT assay.
The next experiment has as its system HeLa. Description: Cytotoxicity against human HeLa cells after 72 hrs by MTT assay.
Experiment [1] is described as follows: Cytotoxicity against human LAC cells after 72 hrs by MTT assay.
[2] abbreviates: Homo sapiens, HepG2, 72 h, read-out: EC50.
[3] abbreviates: Homo sapiens, LAC, 72 h, read-out: EC50.

Some results are limits rather than exact numbers.

For the compound `CCS[C@@H]1[C@H](SCC)[C@@H](CO)O[C@H]1n1cc(Cn2cc(C)c(=O)[nH]c2=O)nn1`, the concentration giving a half-maximal response (EC50) (with A549; with HepG2 (setting [2]); in the experiment on HeLa; in experiment [1] (setting [3])) was above 100 µM each time.
For the compound `CCS[C@@H]1[C@H](SCC)[C@@H](CO)O[C@H]1n1cc(CO)nn1`, the EC50 (in the experiment with A549; with HepG2 (setting [2]); in the experiment on HeLa; in experiment [1] (setting [3])) was above 100 µM throughout.
Turning to `CCS[C@@H]1[C@H](SCC)[C@@H](CO)O[C@H]1n1cc(Cn2ccc(N)nc2=O)nn1`, the half-maximal effective concentration (EC50) (in the experiment with A549; with HepG2 (setting [2]); in the experiment with HeLa; in experiment [1] (setting [3])) was above 100 µM in each case.
For the compound `CCS[C@@H]1[C@H](SCC)[C@@H](CO)O[C@H]1n1cc(-c2ccccc2)nn1`, the concentration for a half-maximal effect (EC50) in the experiment on A549 worked out at 44.1 µM; with HepG2 (setting [2]), 9.6 µM; in the experiment with HeLa, 11.2 µM; in experiment [1] (setting [3]) it was 20.7 µM.
For the compound `CCS[C@@H]1[C@H](SCC)[C@@H](CO)O[C@H]1n1cc(C)c(=O)[nH]c1=O`, the EC50 was 86.4 µM in the experiment with A549, “Not Active” in the experiment on HepG2 (hepg2), 29.5 µM in the experiment on HeLa and “Not Active” in experiment [1] (lac).
For the compound `CCS[C@@H]1[C@H](SCC)[C@@H](CO)O[C@H]1n1cc(C(=O)NC)nn1`, the EC50 (with A549; with HepG2 (setting [2]); in the experiment with HeLa; in experiment [1] (setting [3])) was above 100 µM throughout.
Take `CCS[C@@H]1[C@H](SCC)[C@@H](CO)O[C@H]1n1cc(-c2ccc(F)cc2)nn1`: the concentration for a half-maximal effect (EC50) with A549 was 20.2 µM; in the experiment on HepG2 (setting [2]), 9.62 µM; in the experiment with HeLa, 6.92 µM; in experiment [1] (setting [3]), 16.2 µM.
The corresponding values for `CCS[C@@H]1[C@H](SCC)[C@@H](CO)O[C@H]1n1cc(-c2ccc(OC)cc2)nn1` are 23.4 µM, 11 µM, 5.69 µM and 14.5 µM.
Regarding `CCS[C@@H]1[C@H](SCC)[C@@H](CO)O[C@H]1n1ccc(=O)[nH]c1=O`, the EC50 is 87.4 µM in the experiment with A549, 74.7 µM with HepG2 (setting [2]), 75.7 µM in the experiment with HeLa and “Not Active” in experiment [1] (lac).
In the case of `CCS[C@@H]1[C@H](SCC)[C@@H](CO)O[C@H]1n1ccc(N)nc1=O`, the EC50 with A549 was 86.4 µM; in the experiment on HepG2 (setting [2]), 116 µM; in the experiment with HeLa, 177 µM; in experiment [1] (lac), “Not Active”.
Regarding `O=c1[nH]c(=O)n([C@H]2C[C@H](O)[C@@H](CO)O2)cc1F` [FLOXURIDINE], the EC50 in the experiment with A549 was 9.74 µM; in the experiment with HepG2 (setting [2]), 18.8 µM; with HeLa it was 10.3 µM; in experiment [1] (setting [3]) it was 32.1 µM.

The record behind these values is ChEMBL document CHEMBL1153131, “Synthesis and antitumor activity of novel 2',3'-dideoxy-2',3'-diethanethionucleosides bearing 1,2,3-triazole residues” (Bioorg Med Chem Lett, 2010).
